From the supplement of paper PMC4862054

How the values were obtained:
CAL-148 [1] = assay: drug sensitivity score (DSS), CellTiter-Glo (DSS (AUC-based score)); higher = stronger drug effect (viability inhibition or cytotoxicity); extreme values may be limits of the assay; details: incubation time: 72 h
How it was run: (§1)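 Compound was dispensed into 384-well plates at 5 concentrations in 10-fold steps spanning a 10,000-fold range chosen for each compound, and 20 µl of breast cancer cell suspension was added before 72 h of incubation. CellTox Green fluorescence was read at 485/520 nm, followed by CellTiter-Glo luminescence after 10 min at room temperature. Values on each plate were normalised to 0.1 % DMSO and a positive kill control. The drug sensitivity score came from the area under the fitted dose-response curve.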

HCC1143 [2] = assay: as above; details: incubation time: 72 h
How it was run: as §1

MCF-10A = assay: as above; details: incubation time: 72 h
How it was run: as §1

MDA-MB-468 [3] = assay: as above; details: incubation time: 72 h
How it was run: as §1

HCC1599 [4] = assay: as above; details: incubation time: 72 h
How it was run: as §1

SK-BR-3 [5] = assay: as above; details: incubation time: 72 h
How it was run: as §1

MDA-MB-436 [6] = assay: as above; details: incubation time: 72 h
How it was run: as §1

DU-4475 [7] = assay: normalised viability (% of control), CellTiter-Blue; higher = more viable cells (about 100 = DMSO control); details: 10 nM; incubation time: 72 h
Method: (§2)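 DSRT, CellTiter-Blue viability, 72 h incubation. Signal is normalised to DMSO and benzethonium chloride controls. Value is the normalised response at dose 3.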

CAL-148 [8] = assay: as above; details: 10 nM; incubation time: 72 h
Method: as §2

HCC1937 = assay: as above; details: 100 nM; incubation time: 72 h
Method: as §2

MFM-223 = assay: as above; details: 100 nM; incubation time: 72 h
Method: as §2

HCC1143 [9] = assay: as above; details: 100 nM; incubation time: 72 h
Method: as §2

MDA-MB-468 [10] = assay: as above; details: 100 nM; incubation time: 72 h
Method: as §2

HCC1599 [11] = assay: as above; details: 100 nM; incubation time: 72 h
Method: as §2

Hs578T = assay: as above; details: 100 nM; incubation time: 72 h
Method: as §2

CAL-120 = assay: as above; details: 100 nM; incubation time: 72 h
Method: as §2

BT-549 = assay: as above; details: 100 nM; incubation time: 72 h
Method: as §2

HDQ-P1 = assay: as above; details: 10 nM; incubation time: 72 h
Method: as §2

MDA-MB-453 = assay: as above; details: 10 nM; incubation time: 72 h
Method: as §2

CAL-85-1 [12] = assay: as above; details: 10 nM; incubation time: 72 h
Method: as §2

MDA-MB-231 = assay: as above; details: 100 nM; incubation time: 72 h
Method: as §2

SK-BR-3 [13] = assay: as above; details: 100 nM; incubation time: 72 h
Method: as §2

CAL-51 [14] = assay: as above; details: 10 nM; incubation time: 72 h
Method: as §2

MDA-MB-436 [15] = assay: as above; details: 100 nM; incubation time: 72 h
Method: as §2

BT-474 = assay: as above; details: 100 nM; incubation time: 72 h
Method: as §2

DU-4475 [16] = assay: normalised viability (% of control), CellTiter-Blue; higher = more viable cells (about 100 = DMSO control); details: 300 nM; incubation time: 72 h
How it was run: (§3)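 Compound dissolved in 5 µl medium was pre-loaded into 384-well plates, and breast cancer cell lines in 20 µl suspension were seeded on top and incubated 72 h. After adding 2.5 µl CellTiter-Blue reagent for 2 h at 37 °C, fluorescence was read at 560/590 nm. Plates were normalised to vehicle (100) and a positive kill control (0), with Z'-factor quality control. Each value is normalised viability at a single listed concentration from the series.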

CAL-148 [17] = assay: as above; details: 300 nM; incubation time: 72 h
How it was run: as §3

CAL-85-1 [18] = assay: as above; details: 300 nM; incubation time: 72 h
How it was run: as §3

CAL-51 [19] = assay: as above; details: 300 nM; incubation time: 72 h
How it was run: as §3

Structure (SMILES)	drug sensitivity score (CAL-148 [1])	drug sensitivity score (HCC1143 [2])	drug sensitivity score (MCF-10A)	drug sensitivity score (MDA-MB-468 [3])	drug sensitivity score (HCC1599 [4])	drug sensitivity score (SK-BR-3 [5])	drug sensitivity score (MDA-MB-436 [6])	normalised viability (DU-4475 [7]) [%]	normalised viability (CAL-148 [8]) [%]	normalised viability (HCC1937) [%]	normalised viability (MFM-223) [%]	normalised viability (HCC1143 [9]) [%]	normalised viability (MDA-MB-468 [10]) [%]	normalised viability (HCC1599 [11]) [%]	normalised viability (Hs578T) [%]	normalised viability (CAL-120) [%]	normalised viability (BT-549) [%]	normalised viability (HDQ-P1) [%]	normalised viability (MDA-MB-453) [%]	normalised viability (CAL-85-1 [12]) [%]	normalised viability (MDA-MB-231) [%]	normalised viability (SK-BR-3 [13]) [%]	normalised viability (CAL-51 [14]) [%]	normalised viability (MDA-MB-436 [15]) [%]	normalised viability (BT-474) [%]	normalised viability (DU-4475 [16]) [%]	normalised viability (CAL-148 [17]) [%]	normalised viability (CAL-85-1 [18]) [%]	normalised viability (CAL-51 [19]) [%]
Cc1ccc(-c2cc(C(F)(F)F)nn2-c2ccc(S(N)(=O)=O)cc2)cc1 [Celecoxib]	0	0	0	0	0	0	0	96.9	97.2	94.9	88.4	95.9	111	90.2	83.1	91.1	108	109	103	76.9	89	83.3	100	92.3	110	96	88	70.2	97
O=C(O)C1(C(=O)O)CCC1.[NH2-].[NH2-].[Pt+2] [Carboplatin]	0	0	0	0	0	0	0	98.9	92.4	94.5	88	86.4	98.8	92.8	96	88	101	96.6	103	87.3	92.7	91.1	100	93.3	116	87.6	106	86.1	106
C[C@H]1C[C@@H]2[C@H]([C@@H](O)C[C@@]3(C)[C@H]2CC[C@]3(O)C(=O)CO)[C@@]2(C)C=CC(=O)C=C12 [Methylprednisolone]	0	0	0	0	0	0	0	101	91.3	97.7	81.1	86.6	96.6	108	85.3	79.8	111	116	100	114	120	82.5	101	94.6	119	100	104	112	105
